# Measured values taken from patent US20240269139A1, “COMPOUNDS FOR TARGETED PROTEIN DEGRADATION OF KINASES” (DANA-FARBER CANCER INSTITUTE, INC., priority 2020, published 2024).
# Read-outs that look alike come from different tables or passages of the source.
# Tests used:
# [1] = test system: protein kinases (human kinome); assay type: cell-based; details: for kinases the bifunctional compound degrades: as stated for the structure in the embodiments; for Kinase hits: kinases significantly downregulated vs DMSO (fold change cutoff −1.25, P-value<0.01), ≤8 h, 0.1-5 μM degrader, 7 cell lines; for Total no. kinase hits: number of degraded kinases per library compound
# [2] = target: protein kinases in MOLT-4 cells (Homo sapiens, UniProt P41240); test: Whole cell quantitative proteomics in MOLT-4 cells; details: compared with the library; MOLT-4, 1 μM, 5 h
# Description: (§1) Whole cell multiplexed quantitative proteomics was employed to measure changes in abundance of the proteome in response to treatment with each of the kinase degrader molecules relative to DMSO (Table 1, Appendix I).
# (§2) Cells were treated with DMSO (biological triplicate) or degrader at indicated dose and time and cells were harvested by centrifugation. […] Precipitated protein was resuspended in 4 M Urea, 50 mM HEPES pH 7.4, followed by dilution to 1 M urea with the addition of 200 mM EPPS, pH 8. Proteins were first digested with LysC (1:50: enzyme:protein) for 12 hours at room temperature. The LysC digestion was diluted to 0.5 M Urea with 200 mM EPPS pH 8 followed by digestion with trypsin (1:50; enzyme:protein) for 6 hours at 37° C. Tandem mass tag (TMT) reagents (Thermo Fisher Scientific) were dissolved in anhydrous acetonitrile (ACN) according to manufacturer's instructions. […] The 10, 11, or 16-plex labeling reactions were performed for 1.5 hours at room temperature and the reaction quenched by the addition of hydroxylamine to a final concentration of 0.3% for 15 minutes at room temperature. The sample channels were combined at a 1:1 ratio, desalted using C18 solid phase extraction cartridges (Waters®) and analyzed by LC-MS for channel ratio comparison. Samples were then combined using the adjusted volumes determined in the channel ratio analysis and dried down in a speed vacuum. The combined sample was then resuspended in 1% formic acid, and acidified (pH 2-3) before being subjected to desalting with C18 SPE (Sep-Pak®, Waters®). Samples were then offline fractionated into 96 fractions by high pH reverse-phase HPLC (Agilent® LC1260) through an aeris peptide xb-c18 column (Phenomenex®) with mobile phase A containing 5% acetonitrile and 10 mM NH4HCO3 in LC-MS grade H2O, and mobile phase B containing 90% acetonitrile and 10 mM NH4HCO3 in LC-MS grade H2O (both pH 8.0). The 96 resulting fractions were then pooled in a non-continuous manner into 24 fractions and desalted using C18 solid phase extraction plates (SOLA®, Thermo Fisher Scientific) followed by subsequent mass spectrometry analysis.
# (§3) Data were collected using an Orbitrap Fusion™ Lumos™ mass spectrometer (Thermo Fisher Scientific, San Jose, CA, USA) coupled with a Proxeon EASY-nLC™ 1200 LC pump (Thermo Fisher Scientific) or an Orbitrap Eclipse™ Tribrid™ mass spectrometer (Thermo Fisher Scientific, San Jose, CA, USA) coupled with an UltiMate™ 3000 RSLCnano System. Peptides were separated on an EasySpray™ ES803a/ES803a.rev2 75 μm inner diameter microcapillary column (ThermoFisher Scientific).
# (§4) Data dependent MS2 spectra were acquired in the ion trap with a normalized collision energy (NCE) set at 35%, AGC target set to 1.8×10^4 and a maximum injection time of 120 ms. MS3 scans were acquired in the Orbitrap with HCD collision energy set to 55%. AGC target set to 2×10^5, maximum injection time of 150 ms, resolution at 50,000 and with a maximum synchronous precursor selection (SPS) precursors set to 10.
# (§5) Proteome Discoverer™ 2.1, 2.2 or 2.4 (Thermo Fisher Scientific) was used for .RAW file processing and controlling peptide and protein level false discovery rates, assembling proteins from peptides, and protein quantification from peptides.
# [3] = test system: protein kinases in MOLT-4 cells; test: Whole cell quantitative proteomics in MOLT-4 cells; details: MOLT-4, 1 μM, 5 h
# Description: as §1, §2, §3, §4, §5
# [4] = target: protein kinases (human kinome) (Homo sapiens, UniProt P48736); assay type: cell-based
# [5] = target: protein kinases (human kinome) (Homo sapiens, UniProt P49840); assay type: cell-based; details: GSK3A P49840; experiment wp068
# [6] = target: protein kinases (human kinome) (Homo sapiens, UniProt Q96BR1); assay type: cell-based
# [7] = target: T1, protein kinases (human kinome) (Homo sapiens, UniProt Q9UQ88); assay type: cell-based
# T1 sequence (Q9UQ88 1-783): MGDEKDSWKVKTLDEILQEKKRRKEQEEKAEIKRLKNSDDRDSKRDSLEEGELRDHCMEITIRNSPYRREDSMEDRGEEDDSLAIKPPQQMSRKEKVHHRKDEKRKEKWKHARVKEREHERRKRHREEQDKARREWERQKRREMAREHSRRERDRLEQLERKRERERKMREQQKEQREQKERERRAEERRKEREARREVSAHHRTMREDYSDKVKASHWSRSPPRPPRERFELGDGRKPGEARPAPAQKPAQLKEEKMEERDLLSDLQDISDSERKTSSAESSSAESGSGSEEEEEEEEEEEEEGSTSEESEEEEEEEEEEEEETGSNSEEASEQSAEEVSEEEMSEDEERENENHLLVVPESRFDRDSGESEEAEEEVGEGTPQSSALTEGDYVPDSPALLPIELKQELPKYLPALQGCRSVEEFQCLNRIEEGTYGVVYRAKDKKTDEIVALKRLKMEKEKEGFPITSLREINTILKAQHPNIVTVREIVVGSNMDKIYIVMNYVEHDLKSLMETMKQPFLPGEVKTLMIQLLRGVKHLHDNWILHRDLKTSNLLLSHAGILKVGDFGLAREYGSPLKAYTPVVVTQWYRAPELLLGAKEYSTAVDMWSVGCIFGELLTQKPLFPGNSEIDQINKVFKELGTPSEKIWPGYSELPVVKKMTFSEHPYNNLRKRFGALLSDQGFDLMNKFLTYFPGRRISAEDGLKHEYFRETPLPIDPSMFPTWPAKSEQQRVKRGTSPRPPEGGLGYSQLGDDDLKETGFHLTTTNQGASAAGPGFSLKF
# [8] = target: extended human kinome (kinase-like proteins) (Homo sapiens, UniProt Q16875); test: Whole cell quantitative proteomics: extended kinome hits; details: Accession Q16875; experiment wp068
# [9] = target: T2, protein kinases (human kinome) (Homo sapiens, UniProt P29323); assay type: cell-based
# T2 sequence (P29323 19-1055): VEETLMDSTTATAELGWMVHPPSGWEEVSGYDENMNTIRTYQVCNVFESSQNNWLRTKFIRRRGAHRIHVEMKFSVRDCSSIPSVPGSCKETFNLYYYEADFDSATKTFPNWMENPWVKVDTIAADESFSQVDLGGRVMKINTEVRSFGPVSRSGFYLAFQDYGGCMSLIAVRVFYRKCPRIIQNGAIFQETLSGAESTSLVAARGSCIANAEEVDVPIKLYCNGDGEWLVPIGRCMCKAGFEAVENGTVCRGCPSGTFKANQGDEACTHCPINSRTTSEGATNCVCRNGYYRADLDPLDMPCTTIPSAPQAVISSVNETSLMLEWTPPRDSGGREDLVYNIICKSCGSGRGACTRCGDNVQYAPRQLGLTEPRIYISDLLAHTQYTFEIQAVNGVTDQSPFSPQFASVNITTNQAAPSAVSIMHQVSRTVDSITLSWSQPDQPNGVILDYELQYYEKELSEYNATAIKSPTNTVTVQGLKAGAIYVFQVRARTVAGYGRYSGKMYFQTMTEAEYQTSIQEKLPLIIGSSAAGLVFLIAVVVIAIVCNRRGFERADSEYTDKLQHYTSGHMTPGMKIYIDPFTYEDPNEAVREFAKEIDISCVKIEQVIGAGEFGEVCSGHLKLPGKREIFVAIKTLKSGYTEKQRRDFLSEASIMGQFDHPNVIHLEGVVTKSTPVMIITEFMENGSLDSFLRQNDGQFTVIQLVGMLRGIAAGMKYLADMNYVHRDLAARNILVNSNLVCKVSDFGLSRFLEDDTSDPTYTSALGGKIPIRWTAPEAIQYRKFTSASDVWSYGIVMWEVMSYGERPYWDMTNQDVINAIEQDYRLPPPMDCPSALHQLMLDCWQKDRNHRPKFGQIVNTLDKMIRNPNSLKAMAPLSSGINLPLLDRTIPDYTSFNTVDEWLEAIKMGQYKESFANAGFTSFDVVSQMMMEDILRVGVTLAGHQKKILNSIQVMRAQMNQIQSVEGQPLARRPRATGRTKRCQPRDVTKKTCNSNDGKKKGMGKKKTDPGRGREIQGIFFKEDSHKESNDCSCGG
# [10] = target: protein kinases (human kinome) (Homo sapiens, UniProt P29597); assay type: cell-based; details: experiment wp195
# [11] = target: protein kinases (human kinome) (Homo sapiens, UniProt P42684); assay type: cell-based
# [12] = target: protein kinases (human kinome) (Homo sapiens, UniProt Q9H0K1); assay type: cell-based; details: experiment wp195
# MM1.S cells = test: CellTiter-Glo viability assay; assay type: cell-based, H. sapiens; details: MM.1S multiple myeloma cell line, 72 hours
# Description: MM1.S (purchased from ATCC) was seeded in a 96-well microplate at 10,000 cells per […] well in RPMI-1(40 media supplemented with 10% FBS and incubated with compounds (final DMSO concentration at 0.1%). Relative cell viability was measured 72 hours after drug addition using CellTiter-Glo® (Promega) according to the manufacturer's protocol. Each analysis was performed in biological triplicate.
# [13] = target: protein kinases in MOLT-4 cells (Homo sapiens, UniProt O14965); test: Whole cell quantitative proteomics in MOLT-4 cells; details: MOLT-4, 1 μM, 5 h; validated by immunoblotting
# Description: as §1, §2, §3, §4, §5
# [14] = Experiment wp068, direction of change down
# [15] = CLK1 P49759-3, experiment wp068
# Chain of protein kinases (human kinome) (Homo sapiens, UniProt P48736) (P48736 whole entry): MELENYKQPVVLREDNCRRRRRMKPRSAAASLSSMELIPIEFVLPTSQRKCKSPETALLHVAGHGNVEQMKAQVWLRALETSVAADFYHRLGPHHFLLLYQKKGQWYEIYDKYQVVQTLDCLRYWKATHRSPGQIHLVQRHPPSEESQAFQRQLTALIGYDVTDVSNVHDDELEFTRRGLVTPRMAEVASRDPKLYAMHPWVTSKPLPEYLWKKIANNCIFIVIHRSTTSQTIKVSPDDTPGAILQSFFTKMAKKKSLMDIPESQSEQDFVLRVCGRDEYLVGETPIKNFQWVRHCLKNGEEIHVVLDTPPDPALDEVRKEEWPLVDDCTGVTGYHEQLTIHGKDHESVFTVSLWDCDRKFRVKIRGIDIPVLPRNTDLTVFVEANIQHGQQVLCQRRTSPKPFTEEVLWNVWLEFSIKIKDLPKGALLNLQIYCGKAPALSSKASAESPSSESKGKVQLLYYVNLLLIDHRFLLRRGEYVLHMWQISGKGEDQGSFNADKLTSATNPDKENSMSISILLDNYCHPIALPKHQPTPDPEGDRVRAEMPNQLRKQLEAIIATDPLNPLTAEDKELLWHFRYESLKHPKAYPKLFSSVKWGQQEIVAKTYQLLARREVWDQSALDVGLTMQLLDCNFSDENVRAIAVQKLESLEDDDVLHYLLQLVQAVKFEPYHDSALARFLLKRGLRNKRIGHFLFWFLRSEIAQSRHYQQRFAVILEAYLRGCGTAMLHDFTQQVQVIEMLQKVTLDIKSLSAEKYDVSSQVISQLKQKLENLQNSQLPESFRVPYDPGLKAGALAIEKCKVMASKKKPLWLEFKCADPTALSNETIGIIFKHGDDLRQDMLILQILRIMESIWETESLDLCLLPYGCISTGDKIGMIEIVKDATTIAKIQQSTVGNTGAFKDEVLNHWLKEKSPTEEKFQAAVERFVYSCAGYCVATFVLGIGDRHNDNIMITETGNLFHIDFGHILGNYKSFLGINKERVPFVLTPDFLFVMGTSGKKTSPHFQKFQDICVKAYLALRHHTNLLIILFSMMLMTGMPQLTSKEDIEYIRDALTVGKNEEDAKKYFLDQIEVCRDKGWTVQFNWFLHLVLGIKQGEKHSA
# Chain of protein kinases (human kinome) (Homo sapiens, UniProt P49840) (P49840 whole entry): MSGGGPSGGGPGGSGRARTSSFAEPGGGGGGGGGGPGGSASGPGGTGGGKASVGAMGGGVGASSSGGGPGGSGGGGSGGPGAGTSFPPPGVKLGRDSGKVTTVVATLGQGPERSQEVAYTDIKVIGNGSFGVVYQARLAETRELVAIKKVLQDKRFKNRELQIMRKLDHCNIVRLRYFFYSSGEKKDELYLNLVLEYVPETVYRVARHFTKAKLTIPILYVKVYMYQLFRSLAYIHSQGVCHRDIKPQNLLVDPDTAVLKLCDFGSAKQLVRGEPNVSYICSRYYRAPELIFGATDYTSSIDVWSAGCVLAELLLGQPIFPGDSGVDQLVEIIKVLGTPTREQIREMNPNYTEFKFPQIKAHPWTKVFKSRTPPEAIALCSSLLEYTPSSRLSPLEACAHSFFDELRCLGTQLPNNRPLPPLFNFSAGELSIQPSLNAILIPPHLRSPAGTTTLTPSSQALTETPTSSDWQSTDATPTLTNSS
# Chain of protein kinases (human kinome) (Homo sapiens, UniProt Q96BR1) (Q96BR1 whole entry): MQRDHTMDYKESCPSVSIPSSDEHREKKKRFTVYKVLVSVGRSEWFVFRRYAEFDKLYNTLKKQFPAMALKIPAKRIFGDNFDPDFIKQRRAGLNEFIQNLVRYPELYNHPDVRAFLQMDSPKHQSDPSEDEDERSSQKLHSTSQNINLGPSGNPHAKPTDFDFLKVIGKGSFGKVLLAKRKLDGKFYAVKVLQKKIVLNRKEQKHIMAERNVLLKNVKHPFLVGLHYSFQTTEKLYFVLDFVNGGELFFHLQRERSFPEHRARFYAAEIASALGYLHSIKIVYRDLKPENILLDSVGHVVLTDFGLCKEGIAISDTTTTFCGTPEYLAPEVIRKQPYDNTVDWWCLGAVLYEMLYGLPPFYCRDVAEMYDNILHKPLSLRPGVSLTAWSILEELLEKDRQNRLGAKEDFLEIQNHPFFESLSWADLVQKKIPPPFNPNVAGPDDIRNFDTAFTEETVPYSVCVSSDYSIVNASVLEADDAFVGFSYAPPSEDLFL
# Chain of protein kinases (human kinome) (Homo sapiens, UniProt P29597) (P29597 whole entry): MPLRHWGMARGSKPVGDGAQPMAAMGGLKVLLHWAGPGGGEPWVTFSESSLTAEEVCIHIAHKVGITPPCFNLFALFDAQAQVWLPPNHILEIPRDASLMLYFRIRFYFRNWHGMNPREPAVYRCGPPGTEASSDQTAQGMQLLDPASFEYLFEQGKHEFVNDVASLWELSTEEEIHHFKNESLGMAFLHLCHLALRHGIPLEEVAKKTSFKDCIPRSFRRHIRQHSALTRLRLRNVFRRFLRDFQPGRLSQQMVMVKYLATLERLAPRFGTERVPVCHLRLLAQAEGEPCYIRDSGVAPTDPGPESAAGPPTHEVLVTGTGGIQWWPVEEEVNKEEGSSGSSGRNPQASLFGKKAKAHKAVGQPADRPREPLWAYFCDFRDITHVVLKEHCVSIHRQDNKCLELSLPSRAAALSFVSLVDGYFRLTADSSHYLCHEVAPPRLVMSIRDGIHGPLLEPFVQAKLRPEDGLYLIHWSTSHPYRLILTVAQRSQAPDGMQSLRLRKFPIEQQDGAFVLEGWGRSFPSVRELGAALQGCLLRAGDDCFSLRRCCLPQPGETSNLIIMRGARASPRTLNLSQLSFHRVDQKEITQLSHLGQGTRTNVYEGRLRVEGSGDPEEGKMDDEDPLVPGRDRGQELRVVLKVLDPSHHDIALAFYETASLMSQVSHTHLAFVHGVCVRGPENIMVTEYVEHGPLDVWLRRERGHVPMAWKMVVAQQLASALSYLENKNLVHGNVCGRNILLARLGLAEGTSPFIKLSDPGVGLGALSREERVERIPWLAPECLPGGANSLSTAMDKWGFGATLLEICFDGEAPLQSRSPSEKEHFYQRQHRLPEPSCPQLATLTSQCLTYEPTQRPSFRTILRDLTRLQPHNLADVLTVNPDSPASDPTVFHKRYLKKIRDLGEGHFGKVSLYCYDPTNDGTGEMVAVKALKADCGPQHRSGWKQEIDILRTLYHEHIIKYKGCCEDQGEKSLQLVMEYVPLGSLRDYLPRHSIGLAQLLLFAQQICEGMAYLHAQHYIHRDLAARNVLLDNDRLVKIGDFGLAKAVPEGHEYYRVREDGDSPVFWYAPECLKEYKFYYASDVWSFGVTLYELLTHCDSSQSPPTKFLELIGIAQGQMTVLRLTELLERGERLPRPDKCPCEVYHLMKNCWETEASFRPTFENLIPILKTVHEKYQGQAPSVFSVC
# Chain of protein kinases (human kinome) (Homo sapiens, UniProt P42684) (P42684 whole entry): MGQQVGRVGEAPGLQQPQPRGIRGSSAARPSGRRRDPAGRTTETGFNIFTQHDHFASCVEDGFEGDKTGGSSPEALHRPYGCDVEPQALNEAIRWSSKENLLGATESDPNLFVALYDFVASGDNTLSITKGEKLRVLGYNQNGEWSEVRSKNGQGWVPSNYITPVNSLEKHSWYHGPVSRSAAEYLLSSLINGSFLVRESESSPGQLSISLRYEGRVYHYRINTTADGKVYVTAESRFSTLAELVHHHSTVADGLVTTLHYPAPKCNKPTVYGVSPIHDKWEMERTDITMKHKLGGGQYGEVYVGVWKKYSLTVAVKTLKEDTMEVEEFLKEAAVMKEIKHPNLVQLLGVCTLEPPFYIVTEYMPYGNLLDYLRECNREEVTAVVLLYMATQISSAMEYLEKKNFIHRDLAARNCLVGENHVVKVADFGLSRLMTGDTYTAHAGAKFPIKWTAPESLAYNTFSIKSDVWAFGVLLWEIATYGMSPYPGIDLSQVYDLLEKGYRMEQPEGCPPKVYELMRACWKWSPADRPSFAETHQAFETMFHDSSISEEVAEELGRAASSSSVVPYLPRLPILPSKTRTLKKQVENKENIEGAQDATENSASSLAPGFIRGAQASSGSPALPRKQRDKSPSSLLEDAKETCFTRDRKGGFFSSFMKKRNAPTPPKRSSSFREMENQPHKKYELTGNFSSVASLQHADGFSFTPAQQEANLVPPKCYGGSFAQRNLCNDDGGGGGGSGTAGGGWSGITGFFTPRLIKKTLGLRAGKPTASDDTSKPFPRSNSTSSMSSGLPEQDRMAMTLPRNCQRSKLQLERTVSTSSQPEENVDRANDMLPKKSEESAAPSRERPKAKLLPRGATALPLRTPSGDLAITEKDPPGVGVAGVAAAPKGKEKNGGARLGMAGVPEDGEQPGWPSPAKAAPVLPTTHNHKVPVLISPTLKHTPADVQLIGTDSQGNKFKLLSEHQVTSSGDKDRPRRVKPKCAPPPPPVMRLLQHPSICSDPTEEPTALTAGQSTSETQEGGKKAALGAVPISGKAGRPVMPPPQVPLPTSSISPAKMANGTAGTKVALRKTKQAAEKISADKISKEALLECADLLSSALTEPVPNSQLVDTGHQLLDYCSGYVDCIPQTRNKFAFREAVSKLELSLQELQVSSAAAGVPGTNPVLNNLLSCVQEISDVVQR
# Chain of protein kinases in MOLT-4 cells (Homo sapiens, UniProt P41240) (P41240 whole entry): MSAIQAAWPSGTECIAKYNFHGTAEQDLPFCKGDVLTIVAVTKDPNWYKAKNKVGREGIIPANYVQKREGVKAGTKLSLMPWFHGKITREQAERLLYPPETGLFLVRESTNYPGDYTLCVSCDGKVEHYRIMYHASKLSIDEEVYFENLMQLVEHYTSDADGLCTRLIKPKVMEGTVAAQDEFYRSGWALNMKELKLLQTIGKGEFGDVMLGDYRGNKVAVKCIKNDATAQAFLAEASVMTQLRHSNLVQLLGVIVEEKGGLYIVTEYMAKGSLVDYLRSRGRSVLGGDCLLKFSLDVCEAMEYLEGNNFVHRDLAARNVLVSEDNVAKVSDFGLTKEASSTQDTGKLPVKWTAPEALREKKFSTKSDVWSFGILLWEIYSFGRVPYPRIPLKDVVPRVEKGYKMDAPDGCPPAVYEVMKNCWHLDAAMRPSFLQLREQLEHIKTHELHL
structure (smiles),measurement,setting,value
"Cc1nc(Nc2ncc(C(=O)Nc3c(C)cccc3Cl)s2)cc(N2CCN(CC(=O)NCCCCNC(=O)COc3cccc4c3C(=O)N(C3CCC(=O)NC3=O)C4=O)CC2)n1 (stereo not drawn) [DB-3-291, N-(2-chloro-6-methylphenyl)-2-((6-(4-(2-((4-(2-((2-(2,6-dioxopiperidin-3-yl)-1,3-dioxoisoindolin-4-yl)oxy)acetamido)butyl)amino)-2-oxoethyl)piperazin-1-yl)-2-methylpyrimidin-4-yl)amino)thiazole-5-carboxamide]",kinases the bifunctional compound degrades,[1],"ABL2, BLK, CSK, and WEE1"
same,Kinase hits,[1],"ABL2, BLK, CSK, WEE1"
same,Total no. kinase hits,[1],4
same,degradation of CSK,[2],strongest degradation of CSK
same,selectivity among CSK degraders,[3],greatest selectivity
O=C1CCC(N2C(=O)c3cccc(NCCOCCOCCOCCOCCC(=O)Nc4cccc(CN5CCC(NC(=O)c6[nH]ncc6NC(=O)c6c(Cl)cccc6Cl)CC5)c4)c3C2=O)C(=O)N1 (stereo not drawn) [FMF.04.147.1],logFC PIK3CG (P48736),[4]; [14],−0.3581
same,logFC,"[4]; PIK3CG (P48736), experiment wp068",−0.3581
same,logFC,[5],−0.5346
same,logFC GSK3A,[5],−0.5346
same,logFC SGK3 (Q96BR1-1),[6]; [14],−0.3389
same,logFC,"[6]; SGK3 (Q96BR1-1), experiment wp068",−0.3389
same,logFC,"[7]; CDK11A (Q9UQ88-1), experiment wp068",−0.7386
same,logFC of CDK11A (Q9UQ88-1),[7]; Experiment wp068,−0.7386
same,logFC GSK3B,"[1]; Accession P49841-2, experiment wp068, direction down",−0.6218
same,logFC,"[1]; CDK9 (P50750-2) protein abundance, degrader vs DMSO, down",−0.9142
same,logFC,[1]; [15],−0.6462
same,logFC CLK1,[1]; [15],−0.6462
same,logFC CDK9 (P50750-2),[1]; Experiment wp068,−0.9142
same,logFC GSK3B,"[1]; GSK3B P49841-2, experiment wp068",−0.6218
same,logFC PFKFB3,[8],−0.4462
Cc1ncsc1-c1ccc([C@H](C)NC(=O)[C@@H]2C[C@@H](O)CN2C(=O)[C@@H](NC(=O)CCCCCCc2ccc(Nc3ncc4c(n3)-c3ccccc3NC(=O)N4)cc2)C(C)(C)C)cc1 [JWG.148],logFC,"[9]; EPHB2 (P29323), experiment wp195",−0.3596
same,logFC of EPHB2 (P29323),[9]; Experiment wp195,−0.3596
same,logFC TYK2 (P29597),[10]; direction of change down,−0.5187
same,logFC TYK2,"[10]; protein TYK2 (P29597), down",−0.5187
same,logFC,"[11]; ABL2 (P42684) protein abundance, degrader vs DMSO, down",−0.516
same,logFC ABL2 (P42684),[11]; Experiment wp195,−0.516
same,logFC of SIK2,[12]; Accession Q9H0K1,−0.455
same,logFC SIK2 (Q9H0K1),[12]; direction of change down,−0.455
"COc1cc(Nc2ncc3c(n2)-c2ccc(Cl)cc2C(c2c(F)cccc2OC)=NC3)ccc1C(=O)NCCCOCCOCCOCCCNC(=O)COc1cccc2c1C(=O)N(C1CCC(=O)NC1=O)C2=O (stereo not drawn) [dAURK-4, -((9-chloro-7-(2-fluoro-6-methoxyphenyl)-5H-benzo[c]pyrimido[4,5-e]azepin-2-yl)amino)-N-(1-((2-(2,6-dioxopiperidin-3-yl)-1,3-dioxoisoindolin-4-yl)oxy)-2-oxo-7,10,13-trioxa-3-2174 azahexadecan-16-yl)-2-methoxybenzamide]",kinases the bifunctional compound degrades,[1],AURKA and AURKB
same,Kinase hits,[1],"AURKA, AURKB"
same,Total no. kinase hits,[1],2
same,antiproliferative effects,MM1.S cells,superior antiproliferative effects over parental inhibitor alisertib
same,degradation of AURKA,[13],potent and selective degradation
